Some test systems named below: SF-539; SNB-75; CAKI-1; UACC-257; HCT-15; M14; MOLT-4; MDA-MB-435; SK-MEL-28; SF-295; SNB-19; UO-31; NCI-H460; SR; HCC 2998; SK-MEL-2; MDA-MB-231.
Holding throughout (assay): NCI anticancer screen, dose series, 48 h

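Exposure lasted 48 hours, with cells grown in 96-well plates and compounds tested at five concentrations. GI50 marks 50% less growth.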 Activity calls are given as the source filed them. No stated cut-off is given here; in the data, active = GI50 up to about 1.1 µM and inactive = higher.

As for `N#C/C(C(=O)Nc1ccc(Cl)cc1)=C(/N)N1CCOCC1`, the GI50 in the assay on SF-539 is > 100 µM (inactive); with SNB-75, 65.5 µM (inactive); with CAKI-1, > 100 µM (inactive); in the assay on UACC-257, 47.4 µM (inactive); with HCT-15, over 100 µM; in the assay with M14 it was 86.3 µM (inactive). In addition, the GI50 in the assay with MOLT-4 was 64 µM (inactive); in the assay on MDA-MB-435, 56.9 µM (inactive); in the assay on SK-MEL-28 it was 76 µM (inactive); in the assay with SF-295, > 100 µM (inactive); in the assay with SNB-19, > 100 µM (inactive); with UO-31, 91 µM (inactive). Besides, the GI50 in the assay with NCI-H460, in the assay on SR, with HCC 2998 and in the assay on SK-MEL-2 was > 100 µM (inactive) in each case.

For `c1cc(Sc2nc(Sc3ccncc3)nc(Sc3ccncc3)n2)ccn1`, the GI50 is > 100 µM (inactive) with SF-539; > 100 µM (inactive) with CAKI-1; > 100 µM (inactive) with UACC-257; over 100 µM in the assay on HCT-15; > 100 µM (inactive) in the assay with M14; > 100 µM (inactive) in the assay with MOLT-4. Further, the GI50 in the assay with MDA-MB-435, in the assay on SK-MEL-28, in the assay with SF-295, with SNB-19, in the assay with UO-31 and in the assay on NCI-H460 was > 100 µM (inactive) each time. In addition, the GI50 with MDA-MB-231, in the assay with HCC 2998 and in the assay on SK-MEL-2 was > 100 µM (inactive) in each case.

As for `O=C1C(Cl)=C(OCCCl)C(=O)c2c(O)ccc(O)c21`, the GI50 is 17.3 µM (inactive) in the assay on SF-539; 13 µM (inactive) with SNB-75; 2.38 µM (inactive) in the assay on CAKI-1; 2.59 µM (inactive) in the assay on UACC-257; 2.53 µM in the assay on HCT-15; 1.88 µM (inactive) in the assay with M14. The GI50 was 0.212 µM (active) with MOLT-4; 4.06 µM (inactive) in the assay with SK-MEL-28; 17.5 µM (inactive) in the assay on SF-295; 16.7 µM (inactive) with SNB-19; 5.36 µM (inactive) with UO-31; 18.5 µM (inactive) in the assay on NCI-H460. For the same compound, the figures for the GI50 in the assay on SR, in the assay with MDA-MB-231 and in the assay on HCC 2998 were 0.113 µM (active), 4.38 µM (inactive) and 18.5 µM (inactive), respectively.

As to `COC(=O)C(C(=O)C(=O)NC1Nc2ccc(C)cc2S1)c1nc2ccc(Cl)cc2nc1O` (stereo unspecified), the GI50 in the assay with SF-539 is > 100 µM (inactive); in the assay on SNB-75, > 100 µM (inactive); in the assay with CAKI-1, > 100 µM (inactive); in the assay on UACC-257, > 100 µM (inactive); in the assay with HCT-15 it was over 100 µM; with MDA-MB-435, > 100 µM (inactive). Also, the GI50 is > 100 µM (inactive) in the assay on SK-MEL-28; > 100 µM (inactive) in the assay on SF-295; 96.4 µM (inactive) in the assay with SNB-19; > 100 µM (inactive) in the assay on UO-31; > 100 µM (inactive) in the assay with NCI-H460; > 100 µM (inactive) in the assay with MDA-MB-231. The GI50 with HCC 2998 and in the assay with SK-MEL-2 was > 100 µM (inactive) throughout.

For the compound `CC(C)(C)OC(=O)CCC1NC(=O)[C@@H]2Cc3c([nH]c4ccccc34)C(c3ccccc3)N2C1=O` (stereo partly specified), the GI50 was 29.2 µM (inactive) in the assay on CAKI-1; 21.7 µM (inactive) in the assay on UACC-257; 33 µM in the assay on HCT-15; 25.9 µM (inactive) with M14; > 100 µM (inactive) in the assay on MOLT-4; 21.7 µM (inactive) in the assay on MDA-MB-435. Besides, the GI50 is 44.5 µM (inactive) in the assay on SK-MEL-28; 19.7 µM (inactive) in the assay with SF-295; 34.3 µM (inactive) with SNB-19; 29.4 µM (inactive) in the assay on UO-31; > 100 µM (inactive) in the assay with SR; 19.7 µM (inactive) in the assay on MDA-MB-231. In addition, the GI50 in the assay on SK-MEL-2 is 21 µM (inactive).

Regarding `O=C1Nc2ccccc2S/C1=C\c1cccc(C(F)(F)F)c1`, the GI50 was > 100 µM (inactive) in the assay with SF-539; > 100 µM (inactive) in the assay with SNB-75; 3.01 µM (inactive) in the assay on CAKI-1; > 100 µM (inactive) in the assay with UACC-257; over 100 µM in the assay on HCT-15; > 100 µM (inactive) in the assay with M14. Moreover, the GI50 in the assay with MOLT-4, in the assay on MDA-MB-435, in the assay with SK-MEL-28, with SF-295, with SNB-19 and in the assay with UO-31 was > 100 µM (inactive) in each case. Further, the GI50 in the assay on NCI-H460 is > 100 µM (inactive); in the assay with SR, > 100 µM (inactive); with MDA-MB-231 it was 7.85 µM (inactive); with SK-MEL-2 it was > 100 µM (inactive).

As to `O=C(N/N=C(COc1ccccc1Cl)\N=C\c1cccnc1)c1ccncc1`, the GI50 in the assay with SF-539 is > 100 µM (inactive); in the assay on SNB-75, > 100 µM (inactive); with CAKI-1 it was > 100 µM (inactive); with UACC-257, > 100 µM (inactive); in the assay with HCT-15, over 100 µM; in the assay with M14, > 100 µM (inactive). Besides, the GI50 with MOLT-4, in the assay on MDA-MB-435, with SK-MEL-28, with SF-295, with SNB-19 and in the assay on NCI-H460 was > 100 µM (inactive) in each case. Besides, the GI50 in the assay with MDA-MB-231, in the assay with HCC 2998 and in the assay on SK-MEL-2 was > 100 µM (inactive) throughout.

With `COC(=N)c1ncn(Cc2ccccc2)c1N`, the GI50 was > 100 µM (inactive) with SF-539; > 100 µM (inactive) in the assay on SNB-75; > 100 µM (inactive) in the assay with CAKI-1; > 100 µM (inactive) with UACC-257; over 100 µM with HCT-15; > 100 µM (inactive) in the assay on M14. Besides, the GI50 with MDA-MB-435, in the assay with SK-MEL-28, with SF-295, with SNB-19, in the assay on NCI-H460 and in the assay on MDA-MB-231 was > 100 µM (inactive) each time. The GI50 with HCC 2998 and with SK-MEL-2 was > 100 µM (inactive) throughout.

As for `O=C(CSc1nc2ccc([N+](=O)[O-])cc2s1)c1ccc2ccccc2c1`, the GI50 is 62.2 µM (inactive) with SF-539; > 100 µM (inactive) in the assay on SNB-75; > 100 µM (inactive) in the assay on CAKI-1; > 100 µM (inactive) in the assay on UACC-257; over 100 µM in the assay on HCT-15; > 100 µM (inactive) with M14. The GI50 with MOLT-4 was 74.6 µM (inactive); in the assay on MDA-MB-435, > 100 µM (inactive); in the assay on SK-MEL-28, > 100 µM (inactive); in the assay on SF-295 it was 93.1 µM (inactive); with SNB-19 it was 50.2 µM (inactive); in the assay with UO-31 it was > 100 µM (inactive). The GI50 in the assay on NCI-H460, with MDA-MB-231, in the assay with HCC 2998 and with SK-MEL-2 was > 100 µM (inactive) each time.

With `COC(=O)[C@@H](N1C(=O)c2ccccc2C1=O)C1(C)CC(Cl)=NO1` (stereo partly specified), the GI50 is 17.8 µM (inactive) in the assay on SNB-75; 12.7 µM (inactive) in the assay with CAKI-1; > 100 µM (inactive) in the assay with UACC-257; over 100 µM in the assay on HCT-15; > 100 µM (inactive) in the assay with M14; > 100 µM (inactive) in the assay with MDA-MB-435. Besides, the GI50 with SK-MEL-28 is > 100 µM (inactive); with SF-295 it was 28.1 µM (inactive); in the assay with SNB-19, 24.8 µM (inactive); with UO-31 it was > 100 µM (inactive); in the assay with NCI-H460, > 100 µM (inactive); in the assay with MDA-MB-231 it was 19.1 µM (inactive). Moreover, the GI50 with HCC 2998 and in the assay on SK-MEL-2 was > 100 µM (inactive) throughout.

Turning to `COc1ccc(N2C(=O)C3ON(C(C(N)=O)c4ccccc4)C(c4cc5ccccc5c5ccccc45)C3C2=O)cc1` (stereo unspecified), the GI50 in the assay on SF-539 is 16.1 µM (inactive); in the assay with SNB-75, 40.1 µM (inactive); with CAKI-1, 9.1 µM (inactive); in the assay on UACC-257, 22.7 µM (inactive); in the assay on HCT-15, 20.4 µM; in the assay with M14, 17.7 µM (inactive). Further, the GI50 was 14.5 µM (inactive) in the assay with MOLT-4; 18.4 µM (inactive) with MDA-MB-435; > 50 µM (inactive) with SK-MEL-28; > 50 µM (inactive) in the assay with SF-295; > 50 µM (inactive) in the assay with SNB-19; 16.7 µM (inactive) with UO-31. Besides, the GI50 in the assay with NCI-H460 was > 50 µM (inactive); in the assay on SR, 16.1 µM (inactive); in the assay on MDA-MB-231, > 50 µM (inactive); in the assay with SK-MEL-2, 18.3 µM (inactive).

Regarding `CCOC(=O)c1csc(-c2nc(CCNC(=O)c3ccccc3)sc2Cl)n1`, the GI50 in the assay on SF-539 is > 100 µM (inactive); with SNB-75, 49.4 µM (inactive); in the assay with UACC-257, > 100 µM (inactive); in the assay with HCT-15, 51.3 µM; with M14 it was 58.5 µM (inactive); in the assay with MOLT-4, 34.3 µM (inactive). For the same compound, the GI50 with MDA-MB-435 is 62.7 µM (inactive); in the assay on SK-MEL-28, 56.6 µM (inactive); in the assay on SF-295, > 100 µM (inactive); with SNB-19, > 100 µM (inactive); in the assay on UO-31 it was 61.2 µM (inactive); in the assay on NCI-H460 it was 34.4 µM (inactive). Moreover, the results for the GI50 in the assay with SR and in the assay on HCC 2998 were 37.1 µM (inactive) and > 100 µM (inactive), respectively.

Take `CSCCCCCCCCCCOc1ccc(C=C2C(=C(C#N)C#N)c3ccccc3C2=C(C#N)C#N)cc1`: the GI50 was 18 µM (inactive) in the assay on SF-539; 17.1 µM (inactive) in the assay on CAKI-1; 18.9 µM (inactive) in the assay on UACC-257; 23.1 µM in the assay with HCT-15; 17.9 µM (inactive) in the assay on M14; 19.2 µM (inactive) with MOLT-4. The GI50 in the assay with MDA-MB-435 was 16.7 µM (inactive); in the assay on SK-MEL-28, 16.1 µM (inactive); with SF-295, 17.2 µM (inactive); in the assay on UO-31, 16.3 µM (inactive); in the assay on NCI-H460 it was 17.7 µM (inactive); in the assay with SR, 15 µM (inactive). In addition, the GI50 was 19.4 µM (inactive) in the assay with MDA-MB-231 and 20.1 µM (inactive) in the assay with SK-MEL-2.

`COc1ccc2nc(-c3ccc(O)cc3)sc2c1`: the GI50 was 21.4 µM (inactive) in the assay with SF-539; 29.3 µM (inactive) with CAKI-1; 21.6 µM (inactive) in the assay on UACC-257; 17.9 µM in the assay on HCT-15; 22.7 µM (inactive) in the assay on M14; 27.9 µM (inactive) with MOLT-4. The GI50 with MDA-MB-435 was 25.2 µM (inactive); in the assay on SF-295, 19.8 µM (inactive); in the assay with SNB-19 it was 34.7 µM (inactive); in the assay on UO-31, 16.1 µM (inactive); in the assay with NCI-H460, 39.3 µM (inactive); in the assay with SR, 4.86 µM (inactive). Further, the results for the GI50 in the assay on MDA-MB-231 and in the assay with SK-MEL-2 were 23 µM (inactive) and 43.4 µM (inactive), respectively.

For the origin of these results see ChEMBL document CHEMBL1201862, “PubChem BioAssay data set” (2004).
